Measured values reported in publication PMC9387934, “Randomized single oral dose phase 1 study of safety, tolerability, and pharmacokinetics of Iminosugar UV-4 Hydrochloride (UV-4B) in healthy subjects” (PLoS Neglected Tropical Diseases, 2022).
Structures can show the parent of a compound that is named as a salt.

Assay: Phase 1a single ascending dose study: UV-4 in pooled urine, urinary recovery and renal clearance
Type: in vivo, human
Details: urine; for Cumulative Amount Ae(0-last): corresponds to Ae(0-48); for Cumulative Percent fe(0-last): corresponds to fe(0-48)
Procedure: Serial blood samples were collected at pre-dose (0 hour) and 0.5, 1, 1.5, 2, 2.5, 3, 4, 6, 9, 12, 18, 24, 36, and 48 hours post-dose for assessment of UV-4 concentrations in plasma. Pooled urine samples were collected at pre-dose (-12 to 0 hour) and from 0 to 6, 6 to 12, 12 to 24, and 24 to 48 hours post-dose for assessment of UV-4 concentrations in urine. Plasma and urine concentrations of UV-4 were determined by means of validated, sensitive, and specific high-performance liquid chromatography/tandem mass spectrometric (LC-MS/MS) assays. UV-4 plasma and urine concentrations and PK parameters were listed and summarized by dose, as appropriate. Only the 48 subjects who received active investigational product were included in the PK analysis population.
8.2.3 Specimen Preparation, Handling, and Shipping
8.2.3.1 Instructions for Specimen Preparation, Handling, and Storage
The collected PK blood samples (2 mL) will be placed on ice after blood draw, and within 1 hour centrifuged at room temperature at approximately 3000 revolutions per minute for 15 minutes. Plasma will then be harvested and split into 4 aliquots of approximately 250 μ L and stored frozen at -20°C until shipped.
Urine samples (approximately 10 mL) for determination of UV-4 concentrations in urine will be taken from the total volume provided during each collection period. The total volume of each urine collection will be recorded along with the start/stop time for each urine collection interval.
Analysis of plasma and urine for UV-4 will be performed by the qualified bioanalytical laboratory, Quintiles Bioservices, Inc., Ithaca, New York 14950. Instructions for the proper preparation, handling, storage and shipping of specimens will be provided separately in a study-specific laboratory manual (i.e., Biopacket).
8.2.3.2 Specimen Shipment […]
The following single-dose urine PK parameters will be estimated from the UV-4 urine concentration-time data collected, as appropriate:
Ae Amount of UV-4 excreted in urine unchanged, calculated for each collection interval and cumulatively across intervals fe Fraction of UV-4 excreted in urine unchanged, calculated for each collection interval and cumulatively across intervals […]
Additional UV-4 PK parameters may be calculated at the discretion of the […]
Plasma concentrations and plasma and urine PK parameters will be summarized by treatment using descriptive statistics, as appropriate. Figures for the arithmetic mean (and SD) concentration-time data will be presented for all doses on both a linear and semi-logarithmic scale. Individual concentration-time data will be graphically presented on linear and semi-logarithmic scales. Scatter plots of individual and geometric mean PK parameters versus dose will be presented. Additional graphical presentations of PK data may be added at the discretion of the PK analyst.
Dose proportionality of Cmax, AUC(0-last), and AUC(0-inf) will be assessed graphically and statistically using the power model approach with the logarithm of PK parameters AUC(0-inf) and Cmax as the dependent variables and the logarithm of the dose as the independent variable: ([AUC(0-inf), AUC(0-last), or Cmax]=α *doseβ).
11.4.7 Deviation from Original Analysis Plan
Deviations from the formal statistical analysis plan will be noted in the final Clinical Study

[1] = Cohort 4, 90 mg single oral dose, Median
[2] = Cohort 5, 180 mg single oral dose, Ar Mean
[3] = Cohort 5, 180 mg single oral dose, Median
[4] = Cohort 6, 360 mg single oral dose, Ar Mean
[5] = Cohort 6, 360 mg single oral dose, Median

SMILES: COCCCCCCCCCN1C[C@H](O)[C@@H](O)[C@H](O)[C@H]1CO [UV-4B, N-(9’-methoxynonyl)-1-deoxynojirimycin hydrochloride]
- By-Interval Amount Ae(24-48) [1]: 1.50 mg
- By-Interval Percent fe(0-6) [1]: 43.6%
- By-Interval Percent fe(6-12) [1]: 7.07%
- By-Interval Percent fe(12-24) [1]: 4.46%
- By-Interval Percent fe(24-48) [1]: 1.66%
- Cumulative Amount Ae(0-12) [1]: 44.2 mg
- Cumulative Amount Ae(0-24) [1]: 47.8 mg
- Cumulative Percent fe(0-12) [1]: 49.1%
- Cumulative Percent fe(0-24) [1]: 53.1%
- Cumulative Amount Ae(0-last) [1]: 49.7 mg
- Cumulative Percent fe(0-last) [1]: 55.3%
- By-Interval Amount Ae(0-6) [2]: 77.5 mg
- By-Interval Amount Ae(6-12) [2]: 12.1 mg
- By-Interval Amount Ae(12-24) [2]: 6.06 mg
- By-Interval Amount Ae(24-48) [2]: 2.43 mg
- By-Interval Percent fe(0-6) [2]: 43.0%
- By-Interval Percent fe(6-12) [2]: 6.74%
- By-Interval Percent fe(12-24) [2]: 3.37%
- By-Interval Percent fe(24-48) [2]: 1.35%
- Cumulative Amount Ae(0-12) [2]: 89.6 mg
- Cumulative Amount Ae(0-24) [2]: 95.7 mg
- Cumulative Percent fe(0-12) [2]: 49.8%
- Cumulative Percent fe(0-24) [2]: 53.1%
- Cumulative Amount Ae(0-last) [2]: 97.9 mg
- Cumulative Percent fe(0-last) [2]: 54.5%
- By-Interval Amount Ae(0-6) [3]: 77.7 mg
- By-Interval Amount Ae(6-12) [3]: 12.1 mg
- By-Interval Amount Ae(12-24) [3]: 5.76 mg
- By-Interval Amount Ae(24-48) [3]: 2.20 mg
- By-Interval Percent fe(0-6) [3]: 43.2%
- By-Interval Percent fe(6-12) [3]: 6.72%
- By-Interval Percent fe(12-24) [3]: 3.20%
- By-Interval Percent fe(24-48) [3]: 1.22%
- Cumulative Amount Ae(0-12) [3]: 89.5 mg
- Cumulative Amount Ae(0-24) [3]: 96.8 mg
- Cumulative Percent fe(0-12) [3]: 49.7%
- Cumulative Percent fe(0-24) [3]: 53.8%
- Cumulative Amount Ae(0-last) [3]: 99.8 mg
- Cumulative Percent fe(0-last) [3]: 55.6%
- By-Interval Amount Ae(0-6) [4]: 159 mg
- By-Interval Amount Ae(6-12) [4]: 19.1 mg
- By-Interval Amount Ae(12-24) [4]: 7.09 mg
- By-Interval Amount Ae(24-48) [4]: 2.83 mg
- By-Interval Percent fe(0-6) [4]: 44.2%
- By-Interval Percent fe(6-12) [4]: 5.32%
- By-Interval Percent fe(12-24) [4]: 1.97%
- By-Interval Percent fe(24-48) [4]: 0.787%
- Cumulative Amount Ae(0-12) [4]: 178 mg
- Cumulative Amount Ae(0-24) [4]: 185 mg
- Cumulative Percent fe(0-12) [4]: 49.5%
- Cumulative Percent fe(0-24) [4]: 51.5%
- Cumulative Amount Ae(0-last) [4]: 188 mg
- Cumulative Percent fe(0-last) [4]: 52.3%
- By-Interval Amount Ae(0-6) [5]: 153 mg
- By-Interval Amount Ae(6-12) [5]: 20.0 mg
- By-Interval Amount Ae(12-24) [5]: 6.73 mg
